The values below come from ChEMBL document CHEMBL5543130, “Design, Synthesis, and In Vivo Evaluation of Isosteviol Derivatives as New SIRT3 Activators with Highly Potent Cardioprotective Effects” (J Med Chem, 2024).

Data set [1] is filed under the species Danio rerio. Nature of the data set: Cardioprotective activity against doxorubicin-induced Tg(cmlc2: GFP) Zebrafish assessed as restoration of normal heart structure at 1 uM measured at 72 hrs post fertilization. The format is functional, organism-based.
The nature of data set [2]: Toxicity in zebrafish embryos assessed as survival at upto 40 uM fertilized for 24 hrs followed by compound administration for 72 hrs and measured at 96 hrs post fertilization. Also on record: species or system Danio rerio. To be noted: in vivo.
Data set [3] concerns Danio rerio. Kind of data set: Cardioprotective activity against doxorubicin-induced Zebrafish cardiomyopathy model assessed as survival rate at 1 uM fertilized for 24 hrs followed by compound administration for 72 hrs and measured at 96 hrs post fertilization by inverted fluorescence microscopic analysis. In kind it is functional.
Data set [4] is filed under the species Danio rerio. Nature of the data set: Cardioprotective activity against doxorubicin-induced Tg(cmlc2: GFP) Zebrafish assessed as reduction in cTnT mRNA level measured at 72 hrs post fertilization by qPCR analysis. The format is functional, organism-based. To be noted: dose <= 5.0 µM. For orientation: Real-time PCR tracks product formation cycle by cycle.
Data set [5] is filed under the species Danio rerio. Nature of the data set: Cardioprotective activity against doxorubicin-induced Tg(cmlc2: GFP) Zebrafish assessed as reduction in Anp mRNA level measured at 72 hrs post fertilization by qPCR analysis. In kind it is functional, organism-based. To be noted: dose <= 5.0 µM.
Data set [6] deals with Danio rerio. Nature of the data set: Cardioprotective activity against doxorubicin-induced Tg(cmlc2: GFP) Zebrafish assessed as […] at 1 uM measured at 72 hrs post fertilization. In kind it is functional, organism-based.
The species entered for data set [7] is Danio rerio. Nature of the data set: Cardioprotective activity against doxorubicin-induced Tg(cmlc2: GFP) Zebrafish assessed as reduction in Bnp mRNA level measured at 72 hrs post fertilization by qPCR analysis. The format is functional, organism-based.
Data set [8] is described as follows: Water solubility of the compound measured for 24 hrs by HPLC analysis. In kind it is physicochemical.
Data set [9] relates to Mus musculus. Kind of data set: Cardioprotective activity against doxorubicin-induced C57BL/6 mouse cardiomyopathy model assessed as increase in cardiac output at 2.5 mg/kg, ip administered for 7 days by Echocardiography analysis. In kind it is functional. Conditions: time 7 day.
For data set [10], the system named is Mus musculus. Nature of the data set: Cardioprotective activity against doxorubicin-induced C57BL/6 mouse cardiomyopathy model assessed as increase in ejection fraction at 2.5 mg/kg, ip administered for 7 days by Echocardiography analysis. To be noted: time 7 day. The format is functional.
The nature of data set [11]: Toxicity in Tg(cmlc2: GFP) Zebrafish assessed as mortality at 450 uM measured at 72 hrs post fertilization. Set-up: species or system Danio rerio. Conditions: in vivo.
In data set [12] the test system is Mus musculus. Kind of data set: Cardioprotective activity against doxorubicin-induced C57BL/6 mouse cardiomyopathy model assessed as increase in fractional shortening at 2.5 mg/kg, ip administered for 7 days by Echocardiography analysis. The format is functional. Conditions: time 7 day.
In data set [13] the test system is Mus musculus. Kind of data set: Cardioprotective activity against doxorubicin-induced C57BL/6 mouse cardiomyopathy model assessed as increase in heart weight to tibia length ratio at 2.5 mg/kg, ip administered for 7 days by Echocardiography analysis. The format is functional. Conditions: time 7 day.
In data set [14] the test system is Danio rerio. Nature of the data set: Cardioprotective activity against doxorubicin-induced Zebrafish cardiomyopathy model at 5 to 15 uM fertilized for 24 hrs followed by compound administration for 72 hrs and measured at 96 hrs post fertilization by inverted fluorescence microscopic analysis. The format is functional, organism-based. To be noted: dose 5-15 µM.

Data set [15] concerns Danio rerio. Nature of the data set: Cardioprotective activity against doxorubicin-induced Zebrafish cardiomyopathy model assessed as survival rate at 10 uM fertilized for 24 hrs followed by compound administration for 72 hrs and measured at 96 hrs post fertilization by inverted fluorescence microscopic analysis. In kind it is functional.
Data set [16] concerns Danio rerio. Kind of data set: Cardioprotective activity against doxorubicin-induced Tg(cmlc2: GFP) Zebrafish assessed as […] at 10 uM measured at 72 hrs post fertilization. In kind it is functional, organism-based.
For data set [17], the species on record is Danio rerio. Nature of the data set: Cardioprotective activity against doxorubicin-induced Tg(cmlc2: GFP) Zebrafish assessed as restoration of normal heart structure at 10 uM measured at 72 hrs post fertilization. The format is functional, organism-based.

Activity calls are given as the source filed them. The calls are words filed in the database; no cut-off is given here.

`Cc1ccc(C(=O)O)c(C(=O)N2CCN(C(=O)[C@]3(C)CCC[C@@]4(C)[C@@H]5CC[C@@]6(C)C[C@]5(CC[C@@H]43)CC6=O)CC2)c1`: the outcome in the data set filed under Danio rerio [1] and in the data set with Danio rerio [6] was Active. Moreover, the Activity entry in data set [2] is “Non-Toxic”; in the data set filed under Danio rerio [4], “Dose-Dependent Effect”; in the data set filed under Danio rerio [5] it was “Dose-Dependent Effect”; in the data set listed under Danio rerio [7], “Dose-Dependent Effect”. In addition, the survival at 1 µM with Danio rerio [3] was 90%.

Turning to `C[C@@]12CC[C@@H]3[C@@](CC[C@H]4[C@@]3(C)CCC[C@@]4(C)C(=O)N3CCN(C(=O)c4ccccc4C(=O)[O-])CC3)(CC1=O)C2.[Na+]`, the concentration in solution in [8] (solubility at 24 h) came to 54 mg/mL. Moreover, the Activity in the data set with Mus musculus [9] is 10%; in the data set on Mus musculus [10] it was 59.8%; in data set [11] it was “Non-Toxic”; in the data set with Mus musculus [12], 31.3%. In addition, the Ratio in the data set with Mus musculus [13] is listed as 6.3 mg/mm.

For `C[C@@]12CC[C@@H]3[C@@](CC[C@H]4[C@@]3(C)CCC[C@@]4(C)C(=O)O)(CC1=O)C2` [ISOSTEVIOL], the outcome with Danio rerio [14], in the data set with Danio rerio [16] and in the data set filed under Danio rerio [17] was Active. Besides, in the data set with Danio rerio [15], the survival at 10 µM was found to be 43%. Also, the Activity entry in [2] was “Non-Toxic”.

In general, solubility refers to how much of the substance goes into solution per volume. The low end stands for a poorly soluble substance, the high end for a readily soluble substance.
